The values that follow come from ChEMBL document CHEMBL5725642, “Inhibitors of human immunodeficiency virus replication” (2018).

Where “and” joins values, the source holds several entries; their conditions need not be identical. Identical values can stand only once.

A short description of the assay: Infectivity Assay: HIV cell culture assay¿MT-2 cells, 293T cells and the proviral DNA clone of NL4-3 virus were obtained from the NIH AIDS Research and Reference Reagent Program. MT-2 cells were propagated in RPMI 1640 media supplemented with 10% heat inactivated fetal bovine serum (FBS), 100 ug/ml penicillin G and up to 100 units/ml streptomycin. The 293T cells were propagated in DMEM media supplemented with 10% heat inactivated FBS, 100 ug/ml penicillin G and 100 ug/ml streptomycin. A recombinant NL4-3 proviral clone, in which a section of the nef gene was replaced with the Renilla luciferase gene, was used to make the reference virus used in these studies. The recombinant virus was prepared through transfection of the recombinant NL4-3 proviral clone into 293T cells using Transit-293 Transfection Reagent from Mirus Bio LLC (Madison, Wis.). Supernatent was harvested after 2-3 days after transfection, and the amount of virus present was titered in MT-2 cells using luciferase enzyme activity as a marker. Luciferase activity was quantitated using the EnduRen Live Cell Substrate from Promega (Madison, Wis.). Antiviral activities of compounds toward the recombinant virus were quantified by measuring luciferase activity in MT-2 cells infected for 4-5 days with the recombinant virus in the presence of serial dilutions of the compound.The 50% effective concentration (EC50) was calculated by using the exponential form of the median effect equation where (Fa)=1/[1+(ED50/drug conc.)m](Johnson V A, Byington R T. Infectivity Assay. In Techniques in HIV Research. ed. Aldovini A, Walker B D. 71-76. New York: Stockton Press. 1990). It is filed as cell-based.
For `CN(C(=O)[C@H](Cc1ccccc1)NC(=O)NS(=O)(=O)c1ccccc1-c1cnn(C)c1)c1ccc2c(c1)OCO2`, the EC50 was 5.5 µM and 0.55 µM.
As for `Cc1ccccc1S(=O)(=O)NC(=O)N[C@H](CCc1ccccc1)C(=O)N(C)c1ccc2c(c1)OCO2`, the figure is 55 µM.
As for `CN(C(=O)[C@H](Cc1ccccc1)NC(=O)NS(=O)(=O)c1ccccc1)c1ccc2c(c1)OCO2`, the figure is 0.55 µM.
As for `CN(C(=O)[C@@H](Cc1ccccc1)NC(=O)NS(=O)(=O)c1ccccc1)c1ccc2c(c1)OCO2`, the figure is 55 µM; as for `Cc1ccccc1S(=O)(=O)NC(=O)N[C@@H](CCc1ccccc1)C(=O)N(C)c1ccc2c(c1)OCO2`, 55 µM.
